Read-outs that look alike come from different tables or passages of the source.
Tests used:
[1] = system: HCV genotype 1a subgenomic replicon; assay: HCV replicon assay, genotype 1a (luciferase); format: cell-based; conditions: read-out: Replicon 1A EC50
Experimental: (§1) Protocol for Testing and Data Analysis of Compounds in the HCV Replicon Assay
(§2) Compounds were assayed for activity against HCV using the genotype 1a and 1b subgenomic replicon model systems. Stable cell lines bearing the genotype 1a and 1b replicons were used for screening of compounds. Both replicons are bicistronic and contain the firefly luciferase gene. The ET cell line is stably transfected with RNA transcripts harboring a I389luc-ubi-neo/NS3-3′/ET replicon with firefly luciferase-ubiquitin-neomycin phosphotransferase fusion protein and EMCV-IRES driven NS3-5B polyprotein containing the cell culture adaptive mutations (E1202G; T1280I; K1846T) (Krieger at al, 2001 and unpublished). The genotype 1a replicon is a stable cell line contains the H77 NS3-5B polyprotein sequence, modified to contain the firefly luciferase gene and encode for neomycin resistance. The genotype 1a replicon contains several adaptive changes (NS4B Q31H, NS5A K68R, NS5A S232I). The cells were grown in DMEM, supplemented with 10% fetal calf serum, 2 mM Glutamine, Penicillin (100 IU/mL)/Streptomycin (100 μg/mL), lx nonessential amino acids, and 250-500 μg/mL G418 (“Geneticin”). They were all available through Life Technologies (Bethesda, Md.). The cells were plated at 5×10^3 cells/well in 384 well plates containing compounds. The final concentration of compounds ranged between 0.03 pM to […] and the final DMSO concentration of 0.5-1%.
(§3) Luciferase activity was measured 48 hours later by adding a Steady glo reagent (Promega, Madison, Wis.). Percent inhibition of replication data was plotted relative to no compound control. Under the same condition, cytotoxicity of the compounds was determined using cell titer glo (Promega, Madison, Wis.). EC50s were determined from an 11 point dose response curve using 3-4-fold serial dilution for each compound, which spans a concentration range >1000 fold. The level of inhibition for each compound was determined with Activity Base or with BioAssay plus the Excel XC50 module. Percent inhibition was determined with the following equation where the cross-talk corrected value is the value from the test well, the compound positive control mean is the average value of the wells with no compound present, and the DMSO negative control mean is the average value of the wells with DMSO but no cells present.
(§4) [formula] These normalized values are exported to EC50 where they are plotted against the molar compound concentrations using the standard four parameter logistic equation:
(§5) [formula] Where: • A=minimum y D=slope factor • B=maximum y x=log10 compound concentration [M] • C=log10EC50 pEC50=−C

[2] = system: HCV genotype 1b subgenomic replicon (ET cell line); assay: HCV replicon assay, genotype 1b (luciferase); format: cell-based; conditions: genotype 1b replicon ET cell line, luciferase activity at 48 hours
Experimental: as §1, §2, §3, §4, §5

SMILES: COC(=O)N[C@H](C(=O)N1[C@H](c2ncc(-c3ccc4c(c3)-c3ccc(-c5cnc([C@@H]6C[C@@H]7CCC[C@@H]7N6C(=O)[C@@H](NC(=O)OC)[C@@H](C)O)[nH]5)cc3-4)[nH]2)C[C@@H]2CCC[C@@H]21)[C@@H](C)O [Example 1]
- EC50 ([1]; Hepatitis C virus, 48 h): 0.011 nM
- EC50 ([2]; Hepatitis C virus): 0.006 nM

SMILES: COC(=O)N[C@H](C(=O)N1[C@H](c2ncc(-c3ccc4c(c3)-c3ccc(-c5cnc([C@@H]6C[C@@H]7CCC[C@@H]7N6C(=O)[C@@H](NC(=O)OC)[C@@H](C)OC)[nH]5)cc3-4)[nH]2)C[C@@H]2CCC[C@@H]21)[C@@H](C)OC [Example 2, dimethyl ((2S,2′S,3R,3′R)-((2S,2′S,3aS,3a′S,6aS,6a′S)-2,2′-(5,5′-(biphenylene-2,6-diyl)bis(1H-imidazole-5,2-diyl))bis(hexahydrocyclopenta[b]pyrrole-2,1(2H)-diyl))bis(3-methoxy-1-oxobutane-2,1-diyl))dicarbamate]
- EC50 ([1]; Hepatitis C virus, 48 h): 0.01 nM
- EC50 ([2]; Hepatitis C virus): 0.008 nM

SMILES: COC(=O)N[C@H](C(=O)N1[C@H](c2nc(-c3ccc4c(c3)-c3ccc(-c5c[nH]c([C@@H]6C[C@@H]7CCC[C@@H]7N6C(=O)[C@@H](NC(=O)OC)[C@@H](C)OC)n5)cc3-4)c[nH]2)C[C@@H]2CCC[C@@H]21)[C@@H](C)O [Example 3, Methyl [(1S,2R)-1-{[(2S,3aS,6aS)-2-[4-(6-{2-[(2S,3aS,6aS)-1-((2S,3R)-3-hydroxy-2-{[(methyloxy)carbonyl]amino}butanoyl)octahydrocyclopenta[b]pyrrol-2-yl]-1H-imidazol-4-yl}-2-biphenylenyl)-1H-imidazol-2-yl]hexahydrocyclopenta[b]pyrrol-1(2H)-yl]carbonyl}-2-(methyloxy)propyl]carbamate]
- EC50 ([1]; Hepatitis C virus, 48 h): 0.013 nM
- EC50 ([2]; Hepatitis C virus): 0.008 nM

SMILES: COC(=O)N[C@H](C(=O)N1[C@H](c2ncc(-c3ccc4c(c3)Cc3cc(-c5cnc([C@@H]6C[C@H]7CCC[C@H]7N6C(=O)[C@H](NC(=O)OC)[C@H](C)OC)[nH]5)ccc3-4)[nH]2)C[C@@H]2CCC[C@@H]21)[C@@H](C)OC [Example 4]
- EC50 ([1]; Hepatitis C virus, 48 h): 0.04 nM
- EC50 ([2]; Hepatitis C virus): 0.02 nM

SMILES: COC(=O)N[C@H](C(=O)N1[C@H](c2ncc(-c3ccc4c(c3)Cc3ccc(-c5cnc([C@@H]6C[C@H]7CCC[C@H]7N6C(=O)[C@H](NC(=O)OC)[C@H](C)OC)[nH]5)cc3C4)[nH]2)C[C@@H]2CCC[C@@H]21)[C@@H](C)OC [Example 5, dimethyl ((2S,2′S,3R,3′R)-((2S,2′S,3aS,3a′S,6aS,6a′S)-2,2′-(5,5′-(9,10-dihydroanthracene-2,6-diyl)bis(1H-imidazole-5,2-diyl))bis(hexahydrocyclopenta[b]pyrrole-2,1(2H)-diyl))bis(3-methoxy-1-oxobutane-2,1-diyl))dicarbamate]
- EC50 ([1]; Hepatitis C virus, 48 h): 0.032 nM
- EC50 ([2]; Hepatitis C virus): 0.02 nM

SMILES: COC(=O)N[C@H](C(=O)N1[C@H](c2ncc(-c3ccc4c(c3)CCc3cc(-c5cnc([C@@H]6C[C@H]7CCC[C@H]7N6C(=O)[C@H](NC(=O)OC)[C@H](C)OC)[nH]5)ccc3-4)[nH]2)C[C@@H]2CCC[C@@H]21)[C@@H](C)OC [Example 6, Dimethyl ((2S,2′S,3R,3′R)-((2S,2′S,3aS,3a′S,6aS,6a′S)-2,2′-(5,5′-(9,10-dihydrophenanthrene-2,7-diyl)bis(1H-imidazole-5,2-diyl))bis(hexahydrocyclopenta[b]pyrrole-2,1(2H)-diyl))bis(3-methoxy-1-oxobutane-2,1-diyl))dicarbamate]
- EC50 ([1]; Hepatitis C virus, 48 h): 0.016 nM
- EC50 ([2]; Hepatitis C virus): 0.016 nM

SMILES: COC(=O)N[C@H](C(=O)N1[C@H](c2ncc(-c3ccc4c5ccc(-c6cnc([C@@H]7C[C@@H]8CCC[C@@H]8N7C(=O)[C@@H](NC(=O)OC)[C@@H](C)OC)[nH]6)cc5n(C)c4c3)[nH]2)C[C@@H]2CCC[C@@H]21)[C@@H](C)OC [Example 7, dimethyl ((2S,2′S,3R,3′R)-((2S,2′S,3aS,3a′S,6aS,6a′S)-2,2′-(5,5′-(9-methyl-9H-carbazole-2,7-diyl)bis(1H-imidazole-5,2-diyl))bis(hexahydrocyclopenta[b]pyrrole-2,1(2H)-diyl))bis(3-methoxy-1-oxobutane-2,1-diyl))dicarbamate]
- EC50 ([1]; genotype 1a replicon stable cell line (H77 NS3-5B), luciferase activity at 48 hours): 0.16 nM
- EC50 [2]: 0.032 nM

SMILES: COC(=O)N[C@H](C(=O)N1[C@@H]2CCC[C@@H]2C[C@H]1c1ncc(-c2ccc3c(c2)C(F)(F)c2cc(-c4cnc([C@@H]5C[C@@H]6CCC[C@@H]6N5C(=O)[C@@H](NC(=O)OC)[C@@H](C)OC)[nH]4)ccc2-3)[nH]1)[C@@H](C)OC [Example 8, Dimethyl ((2S,2′S,3R,3′R)-((2S,2′S,3aS,3a′S,6aS,6a′S)-2,2′-(5,5′-(9,9-difluoro-9H-fluorene-2,7-diyl)bis(1H-imidazole-5,2-diyl))bis(hexahydrocyclopenta[b]pyrrole-2,1(2H)-diyl))bis(3-methoxy-1-oxobutane-2,1-diyl))dicarbamate]
- EC50 ([1]; Hepatitis C virus, 48 h): 0.032 nM
- EC50 ([2]; Hepatitis C virus): 0.016 nM

SMILES: COC(=O)N[C@H](C(=O)N1[C@@H]2CCC[C@@H]2C[C@H]1c1ncc(-c2ccc3c(c2)S(=O)(=O)c2cc(-c4cnc([C@@H]5C[C@@H]6CCC[C@@H]6N5C(=O)[C@@H](NC(=O)OC)[C@@H](C)OC)[nH]4)ccc2-3)[nH]1)[C@@H](C)OC [Example 9]
- EC50 ([1]; Hepatitis C virus, 48 h): 0.08 nM
- EC50 ([2]; Hepatitis C virus): 0.032 nM

SMILES: COC(=O)N[C@H](C(=O)N1[C@@H]2CCC[C@@H]2C[C@H]1c1ncc(-c2ccc3c(c2)Oc2ccc(-c4cnc([C@@H]5C[C@@H]6CCC[C@@H]6N5C(=O)[C@@H](NC(=O)OC)[C@@H](C)OC)[nH]4)cc2O3)[nH]1)[C@@H](C)OC [Example 10, Dimethyl ((2S,2′S,3R,3′R)-((2S,2′S,3aS,3a′S,6aS,6a′S)-2,2′-(5,5′-(dibenzo[b,e][1,4]dioxine-2,7-diyl)bis(1H-imidazole-5,2-diyl))bis(hexahydrocyclopenta[b]pyrrole-2,1(2H)-diyl))bis(3-methoxy-1-oxobutane-2,1-diyl))dicarbamate]
- EC50 ([1]; Hepatitis C virus, 48 h): 0.01 nM
- EC50 ([2]; Hepatitis C virus): 0.01 nM
